# Experiments:
# embryonic stem cells = assay: RT-PCR analysis of insulin (INS) and amylase (AML) transcripts in embryonic stem cells differentiated with retinoic acid; assay type: cell-based; parameters: key to Abundance of Insulin RT-PCR Product (INS) / Abundance of Amylase RT-PCR Product (AML): +: Indicates relative abundance; −: No RT-PCR band observed
# Protocol: Embryonic stem cell lines were cultured and spilt 1:8 every three days for 4 passages on gelatin coated Tissue Culture (TC) dishes without Mouse Embryonic Fibroblasts (MEF's) (with 1500 units/ml Lymphocyte Inhibitory Factor (LIF) in media) to remove MEF's from culture. The resulting stem cells were then differentiated as follows:
# On day 1, the stem cells were treated with trypsin to break up some aggregation and then suspended in 1% Fetal Calf Serum (FCS) Media (without LIF). The stem cells were then allowed to self-aggregate into embryoid bodies in suspension culture in bacterial petri dishes. On day 3, the cells were given a fresh media change and then split among two bacterial petri dishes (sample and control). A solution containing 1 μM retinoic acid was intermixed with the sample and both the control (no retinoic acid) and the sample were allowed to sit at 37° C. Fresh media were supplied at day 5 (with fresh 1 μM retinoic acid for the treated sample). At day 7, fresh media was supplied for both, with no retinoic acid (retinoic acid only present from days 3 to 7).
# Fresh media was supplied again on day 9. On […] the cells were again trypsinized and then placed into TC dishes with 10% FCS media (no LIF). Small aliquots were taken at various times (days 14, 17, 19, 22, and 25) from the cultures and were saved for later analysis by reverse transcriptase polymerase chain reaction (RT-PCR).
# On day 14, the media was changed for the two groups of cells (10% FCS) in each population (control and sample). On day 17, the media was changed again.
# On day 19, adherent cells were gently blown off by pipetting, then trypsinized and resuspended in 10% FCS in bacterial petri dish suspension cultures. On days 22 and 25, the remaining cells were collected and a portion retained for RT-PCR analysis.
# All culturing from day 1 forward was performed in 25 millimolar (mM) glucose (high glucose) until after day 19, when it was changed to 5.5 millimolar glucose (lower glucose) The glucose concentrations ranged from 30 mM to 10 mM on the high end and 0.5 mM-5 mM on the low end.
# Total RNA from each aliquot collected above was purified as instructed with a Qiagen RNeasy® Mini purification kit (obtained commercially from Qiagen Inc.). The presence of specific RNA transcripts (i.e. insulin) was determined by RT-PCR using gene specific oligonucleotide primers as instructed with a Qiagen® OneStep RT-PCR kit (obtained commercially from Qiagen Inc.). Total RNA was prepared from cultures of differentiating ES cells. RT-PCR analyses were performed with appropriate oligonucleotide primers (INS-insulin) or the pancreatic specific product amylase (AML).
# embryoid bodies = assay: Immunoperoxidase cytochemistry for insulin in suspended embryoid bodies; assay type: cell-based; settings: retinoic acid days 3 to 7; suspension culture; day 32; versus control lacking primary antibody; FIG. 4
# Protocol: Embryonic stem cell lines were cultured as described above for Examples 1-10 on gelatin coated Tissue Culture (TC) dishes without Mouse Embryonic Fibroblasts (MEF's) (with 1500 units/ml Lymphocyte Inhibitory Factor (LIF) in media) to remove MEF's from culture. The resulting stem cells were then differentiated as described above (with retinoic acid during treatment during days 3 to 7) except that the formed embryoid bodies were maintained in suspension for the duration of the experiment as opposed to being separated and adhered to TC dishes. All culturing from day 1 forward was performed in 25 millimolar (mM) glucose (high glucose) until after day 19, when it was changed to 5.5 millimolar glucose (physiological glucose).
# [1] = Ex. 10, lane 5, 1 μM retinoic acid days 3 to 7, day 25, glucose 5.5 mM
structure (smiles),measurement,setting,value
CC1=C(/C=C/C(C)=C/C=C/C(C)=C/C(=O)O)C(C)(C)CCC1 [retinoic acid],Abundance of Insulin RT-PCR Product (INS),"embryonic stem cells; Ex. 9, lane 4, 1 μM retinoic acid days 3 to 7, day 22, glucose 5.5 mM",+
same,Abundance of Amylase RT-PCR Product (AML),embryonic stem cells; [1],−
same,Abundance of Insulin RT-PCR Product (INS),embryonic stem cells; [1],−
same,Formation of insulin-producing cells (correctly sized insulin-specific RT-PCR band),"embryonic stem cells; stem cells treated with retinoic acid, aliquots at days 14, 17, 19 and 22, FIG. 1",insulin-producing cells resulted
same,Insulin protein in embryoid bodies by specific antibody staining,embryoid bodies,produce insulin
